Source: patent publication US20230250066A1, “HERBICIDAL CINNOLINE DERIVATIVES” (SYNGENTA CROP PROTECTION AG, priority 2020, published 2023)

Columns and labels:
Assay type in all cases: in vivo
[1] = system: Amaranthus retoflexus (AMARE); test: Post-emergence herbicidal test; details: 1000 g/ha unless otherwise stated, evaluated after 13 days
Description: (§1) Seeds of a variety of test species are sown in standard soil in pots (Amaranthus retoflexus (AMARE), Solanum nigrum (SOLNI), Setaria faberi (SETFA), Lolium perenne (LOLPE), Echinochloa crus-galli (ECHCG), Ipomoea hederacea (IPOHE), Abutilon theophrasti (ABUTH), Zea mays (ZEAMX)). After 8 days cultivation under controlled conditions in a glasshouse (at 24° C./16° C., day/night; 14 hours light; 65% humidity), the plants are sprayed with an aqueous spray solution derived from the formulation of the technical active ingredient in acetone/water (50:50) solution containing 0.5% Tween 20 (polyoxyethelyene sorbitan monolaurate, CAS RN 9005-64-5). Compounds are applied at 1000 g/ha unless otherwise stated. The test plants are then grown in a glasshouse under controlled conditions in a glasshouse (at 24° C./16° C., day/night; 14 hours light; 65% humidity) and watered twice daily. After 13 days the test is evaluated for the percentage damage caused to the plant. The biological activities are shown in the following table on a five-point scale (5=81-100%; 4=61-80%; 3=41-60%; 2=21-40%; 1=10-20%; 0=0%;−=not tested).

[2] = system: Echinochloa crus-galli (ECHCG); test: Post-emergence herbicidal test; details: 1000 g/ha unless otherwise stated, evaluated after 13 days
Description: as §1

Zea mays (ZEAMX) [3] = test: Post-emergence herbicidal test; details: 1000 g/ha unless otherwise stated, evaluated after 13 days
Description: as §1

Setaria faberi (SETFA) [4] = test: Post-emergence herbicidal test; details: 1000 g/ha unless otherwise stated, evaluated after 13 days
Description: as §1

[5] = system: Abutilon theophrasti (ABUTH); test: Post-emergence herbicidal test; details: 1000 g/ha unless otherwise stated, evaluated after 13 days
Description: as §1

[6] = system: Ipomoea hederacea (IPOHE); test: Post-emergence herbicidal test; details: 1000 g/ha unless otherwise stated, evaluated after 13 days
Description: as §1

[7] = system: Abutilon theophrasti (ABUTH); test: Pre-emergence herbicidal test; details: 1000 g/ha, evaluated after 13 days
Zea mays (ZEAMX) [8] = test: Pre-emergence herbicidal test; details: 1000 g/ha, evaluated after 13 days
[9] = system: Amaranthus retoflexus (AMARE); test: Pre-emergence herbicidal test; details: 1000 g/ha, evaluated after 13 days
Setaria faberi (SETFA) [10] = test: Pre-emergence herbicidal test; details: 1000 g/ha, evaluated after 13 days
[11] = system: Echinochloa crus-galli (ECHCG); test: Pre-emergence herbicidal test; details: 1000 g/ha, evaluated after 13 days
[12] = system: Ipomoea hederacea (IPOHE); test: Pre-emergence herbicidal test; details: 1000 g/ha, evaluated after 13 days

Compound	percentage damage caused to the plant, AMARE (five-point scale) [1]	percentage damage caused to the plant, ECHCG (five-point scale) [2]	percentage damage caused to the plant, ZEAMX (five-point scale) (Zea mays (ZEAMX) [3])	percentage damage caused to the plant, SETFA (five-point scale) (Setaria faberi (SETFA) [4])	percentage damage caused to the plant, ABUTH (five-point scale) [5]	percentage damage caused to the plant, IPOHE (five-point scale) [6]	percentage damage caused to the plant, five-point scale, ABUTH [7]	percentage damage caused to the plant, five-point scale, ZEAMX (Zea mays (ZEAMX) [8])	percentage damage caused to the plant, five-point scale, AMARE [9]	percentage damage caused to the plant, five-point scale, SETFA (Setaria faberi (SETFA) [10])	percentage damage caused to the plant, five-point scale, ECHCG [11]	percentage damage caused to the plant, five-point scale, IPOHE [12]
CCOC(=O)c1nn(-c2ccc(OC(F)(F)F)cc2)c2cc(F)cc(S(C)(=O)=O)c2c1=O [Compound P52, ethyl 7-fluoro-5-methylsulfonyl-4-oxo-1-[4-(trifluoromethoxy)phenyl]cinnoline-3-carboxylate]	1 (1=10-20%)	2 (2=21-40%)	1 (1=10-20%)	2 (2=21-40%)	1 (1=10-20%)	0 (0=0%)	1 (1=10-20%)	0 (0=0%)	1 (1=10-20%)	4 (4=61-80%)	3 (3=41-60%)	0 (0=0%)
CS(=O)(=O)c1cc(Br)cc2c1c(=O)c(C(=O)O)nn2-c1ccc(OC(F)(F)F)cc1 [Compound P13, 7-bromo-5-methylsulfonyl-4-oxo-1-[4-(trifluoromethoxy)phenyl]cinnoline-3-carboxylic acid]	1 (1=10-20%)	1 (1=10-20%)	1 (1=10-20%)	1 (1=10-20%)	0 (0=0%)	0 (0=0%)	1 (1=10-20%)	0 (0=0%)	0 (0=0%)	0 (0=0%)	0 (0=0%)	0 (0=0%)
CS(=O)(=O)c1cc(F)cc2c1c(=O)c(C(=O)O)nn2-c1ccc(OC(F)(F)F)cc1 [Compound P21, 7-fluoro-5-methylsulfonyl-4-oxo-1-[4-(trifluoromethoxy)phenyl]cinnoline-3-carboxylic acid]	0 (0=0%)	2 (2=21-40%)	0 (0=0%)	2 (2=21-40%)	0 (0=0%)	0 (0=0%)	0 (0=0%)	1 (1=10-20%)	0 (0=0%)	4 (4=61-80%)	2 (2=21-40%)	0 (0=0%)
CS(=O)(=O)c1cccc2c1c(=O)c(C(=O)OCCC#N)nn2-c1ccc(OC(F)(F)F)cc1 [Compound P73, 2-cyanoethyl 5-methylsulfonyl-4-oxo-1-[4-(trifluoromethoxy)phenyl]cinnoline-3-carboxylate]	0 (0=0%)	3 (3=41-60%)	1 (1=10-20%)	4 (4=61-80%)	0 (0=0%)	1 (1=10-20%)	0 (0=0%)	0 (0=0%)	0 (0=0%)	5 (5=81-100%)	3 (3=41-60%)	0 (0=0%)
CS(=O)(=O)c1cccc2c1c(=O)c(C(=O)OCCCc1ccccc1)nn2-c1ccc(OC(F)(F)F)cc1 [Compound P84, 3-phenylpropyl 5-methylsulfonyl-4-oxo-1-[4-(trifluoromethoxy)phenyl]cinnoline-3-carboxylate]	0 (0=0%)	2 (2=21-40%)	0 (0=0%)	4 (4=61-80%)	1 (1=10-20%)	1 (1=10-20%)	0 (0=0%)	0 (0=0%)	0 (0=0%)	4 (4=61-80%)	3 (3=41-60%)	0 (0=0%)
CS(=O)(=O)c1cccc2c1c(=O)c(C(=O)OCCCl)nn2-c1ccc(OC(F)(F)F)cc1 [Compound P61, 2-chloroethyl 5-methylsulfonyl-4-oxo-1-[4-(trifluoromethoxy)phenyl]cinnoline-3-carboxylate]	0 (0=0%)	3 (3=41-60%)	0 (0=0%)	4 (4=61-80%)	2 (2=21-40%)	0 (0=0%)	0 (0=0%)	1 (1=10-20%)	0 (0=0%)	5 (5=81-100%)	4 (4=61-80%)	0 (0=0%)
CCCCCCOC(=O)c1nn(-c2ccc(OC(F)(F)F)cc2)c2cccc(S(C)(=O)=O)c2c1=O [Compound P59, hexyl 5-methylsulfonyl-4-oxo-1-[4-(trifluoromethoxy)phenyl]cinoline-3-carboxylate]	1 (1=10-20%)	4 (4=61-80%)	2 (2=21-40%)	4 (4=61-80%)	1 (1=10-20%)	3 (3=41-60%)	3 (3=41-60%)	3 (3=41-60%)	2 (2=21-40%)	4 (4=61-80%)	3 (3=41-60%)	2 (2=21-40%)
CS(=O)(=O)c1cccc2c1c(=O)c(C(=O)OCCC1CCCCC1)nn2-c1ccc(OC(F)(F)F)cc1 [Compound P87, 2-cyclohexylethyl 5-methylsulfonyl-4-oxo-1-[4-(trifluoromethoxy)phenyl]cinnoline-3-carboxylate]	1 (1=10-20%)	1 (1=10-20%)	0 (0=0%)	1 (1=10-20%)	1 (1=10-20%)	0 (0=0%)	1 (1=10-20%)	1 (1=10-20%)	0 (0=0%)	3 (3=41-60%)	1 (1=10-20%)	1 (1=10-20%)
CCOC(=O)c1nn(-c2ccc(OC(F)(F)F)cc2)c2ccc(Br)c(SC)c2c1=O [Compound P53, ethyl 6-bromo-5-methylsulfanyl-4-oxo-1-[4-(trifluoromethoxy)phenyl]cinnoline-3-carboxylate]	0 (0=0%)	1 (1=10-20%)	0 (0=0%)	0 (0=0%)	1 (1=10-20%)	1 (1=10-20%)	1 (1=10-20%)	–	1 (1=10-20%)	1 (1=10-20%)	1 (1=10-20%)	0 (0=0%)
